Data reported in ChEMBL document CHEMBL1201862, “PubChem BioAssay data set” (2004).
Activity calls are given as the source filed them.

System: not listed separately
Assay: inhibitors of firefly luciferase expression or activity, dose response, H4 neuroglioma cells, luminescence (AID 1990)
Type: functional, cell-based
Conditions: not given

Structure (SMILES)	EC50
C=CCNc1nc(N)c([N+](=O)[O-])c(N2CCCCCC2)n1	> 120 µM (not active)
OC(CSc1ccccc1Cl)CN1CCN(c2ccc(F)cc2)CC1 (stereo unspecified)	> 120 µM (not active)

Molecular target: T1, RNA-binding protein pos-1 (Caenorhabditis elegans, UniProt G5EF15)
T1 sequence (G5EF15 whole entry): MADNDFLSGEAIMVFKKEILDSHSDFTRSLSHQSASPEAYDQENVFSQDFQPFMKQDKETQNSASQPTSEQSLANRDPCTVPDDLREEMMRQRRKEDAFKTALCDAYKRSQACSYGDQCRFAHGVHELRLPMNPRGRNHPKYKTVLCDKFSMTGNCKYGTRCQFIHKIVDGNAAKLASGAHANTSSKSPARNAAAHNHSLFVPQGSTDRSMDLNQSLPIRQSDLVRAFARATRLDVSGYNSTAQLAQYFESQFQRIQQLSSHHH
Assay: inhibitors of POS-1/mex-3 RNA binding, dose response, biochemical, fluorescence polarization (AID 1964);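 further: purified POS-1 fused to maltose binding protein made in E. coli; potency of compounds blocking POS-1 binding to fluorescent RNA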
Conditions: not given

Structure (SMILES)	EC50
CCOC(=O)c1cc(-c2ccccc2)sc1NC(=S)Nc1cc(C)ccn1	11.1 µM (inconclusive)

System: not listed separately
Assay: Luminescence Cell-Based Dose Confirmation HTS to Identify Activators of 5'UTR Stem-Loop Driven Alpha-Synuclein mRNA Translation in H4 Neuroglioblastoma Cells. [Related pubchem assays: 1829 (Project Summary), 1814 (Primary HTS)]
Type: functional
Conditions: not given

Structure (SMILES)	EC50
COc1ccc(C(=O)/C=C2/C(=O)Nc3ccccc32)cc1	18.1 µM (active)
c1ccc2[nH]c(-c3cscn3)nc2c1 [THIABENDAZOLE]	14.3 µM (active)

System: not listed separately
Assay: Luminescence Cell-Based Dose Response HTS to Identify Activators of Luciferase Translation or Activity in H4 […] Cells. [Related pubchem assays: 1829 (Project Summary), 1814 (Primary HTS)]
Type: functional
Conditions: not given

Structure (SMILES)	EC50
COc1ccc(C(=O)/C=C2/C(=O)Nc3ccccc32)cc1	> 120 µM (not active)
CNC(=O)COC(=O)c1ccc(-c2nc3ccccc3s2)s1	0.764 µM (active)
c1ccc2[nH]c(-c3cscn3)nc2c1 [THIABENDAZOLE]	18.7 µM (active)

System: not listed separately
Assay: Luminescence Cell-Based Dose Response HTS to Identify Inhibitors of 5'UTR Stem-Loop Driven Prion Protein mRNA Translation in H4 Neuroglioblastoma Cells. [Related pubchem assays: 1827 (Project Summary), 1813 (Primary HTS)]
Type: functional
Conditions: not given

Structure (SMILES)	EC50
C=CCNc1nc(N)c([N+](=O)[O-])c(N2CCCCCC2)n1	> 120 µM (not active)
OC(CSc1ccccc1Cl)CN1CCN(c2ccc(F)cc2)CC1 (stereo unspecified)	> 120 µM (not active)

System: H4
Assay: Luminescence Cell-Based Dose Response HTS to Identify Activators of 5'UTR Stem-Loop Driven Prion Protein mRNA Translation in H4 Neuroglioblastoma Cells. [Related pubchem assays: 1829 (Project Summary), 1814 (Primary HTS)]
Type: functional
Conditions: Homo sapiens

Structure (SMILES)	EC50
COc1ccc(C(=O)/C=C2/C(=O)Nc3ccccc32)cc1	17.1 µM (active)
CNC(=O)COC(=O)c1ccc(-c2nc3ccccc3s2)s1	56.3 µM (active)
c1ccc2[nH]c(-c3cscn3)nc2c1 [THIABENDAZOLE]	23.7 µM (active)

Molecular target: T2, Zinc finger protein mex-5 (Caenorhabditis elegans, UniProt Q9XUB2)
T2 sequence (Q9XUB2 whole entry): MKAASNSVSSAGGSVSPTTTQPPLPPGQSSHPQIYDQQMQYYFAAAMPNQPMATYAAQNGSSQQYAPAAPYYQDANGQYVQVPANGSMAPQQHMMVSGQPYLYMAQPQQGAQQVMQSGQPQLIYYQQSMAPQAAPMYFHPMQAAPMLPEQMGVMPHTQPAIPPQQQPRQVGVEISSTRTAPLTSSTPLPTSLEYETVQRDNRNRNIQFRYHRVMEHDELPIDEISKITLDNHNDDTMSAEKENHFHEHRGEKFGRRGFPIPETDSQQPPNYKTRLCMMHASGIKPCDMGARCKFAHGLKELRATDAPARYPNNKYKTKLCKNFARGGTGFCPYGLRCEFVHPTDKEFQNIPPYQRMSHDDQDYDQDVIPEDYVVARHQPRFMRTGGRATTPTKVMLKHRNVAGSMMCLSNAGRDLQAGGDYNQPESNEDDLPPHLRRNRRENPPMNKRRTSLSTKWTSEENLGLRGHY
Assay: MEX-5/TCR-2 RNA interaction inhibitors, dose response, biochemical, C. elegans, fluorescence polarization (AID 1960)
Conditions: not given

Structure (SMILES)	EC50
CCOC(=O)c1cc(-c2ccccc2)sc1NC(=S)Nc1cc(C)ccn1	0.77 µM (inconclusive)

System: not listed separately
Assay: inhibitors of SNCA 5'UTR-driven reporter translation, confirmation, H4 neuroglioma cells, luminescence (AID 1988)
Type: functional, cell-based
Conditions: not given

Structure (SMILES)	EC50
C=CCNc1nc(N)c([N+](=O)[O-])c(N2CCCCCC2)n1	26.7 µM (active)
OC(CSc1ccccc1Cl)CN1CCN(c2ccc(F)cc2)CC1 (stereo unspecified)	> 120 µM (not active)

Molecular target: Luciferin 4-monooxygenase (Photinus pyralis, UniProt P08659)
Sequence (P08659 whole entry): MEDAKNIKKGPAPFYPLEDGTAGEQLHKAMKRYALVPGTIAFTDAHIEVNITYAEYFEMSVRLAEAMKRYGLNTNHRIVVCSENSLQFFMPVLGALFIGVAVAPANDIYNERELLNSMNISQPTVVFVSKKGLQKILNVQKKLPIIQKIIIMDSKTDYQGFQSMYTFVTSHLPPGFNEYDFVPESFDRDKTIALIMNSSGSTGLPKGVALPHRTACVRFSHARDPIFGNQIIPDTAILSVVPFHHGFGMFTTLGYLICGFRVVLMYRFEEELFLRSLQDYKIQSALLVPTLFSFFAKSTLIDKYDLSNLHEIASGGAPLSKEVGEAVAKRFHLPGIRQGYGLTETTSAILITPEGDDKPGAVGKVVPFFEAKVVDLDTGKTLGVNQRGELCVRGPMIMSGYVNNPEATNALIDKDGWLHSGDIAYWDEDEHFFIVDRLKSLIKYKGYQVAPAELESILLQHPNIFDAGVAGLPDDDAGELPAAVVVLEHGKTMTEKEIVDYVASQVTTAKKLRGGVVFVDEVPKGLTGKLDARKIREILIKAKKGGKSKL
Assay: firefly luciferase enzyme inhibitors, dose response, biochemical, luminescence (AID 1891)
Conditions: not given

Structure (SMILES)	EC50
COc1ccc(C(=O)Nc2ccccc2C(=O)Nc2cccnc2)cc1	1.61 µM (active)
COc1ccc(S(=O)(=O)N2CCN(Cc3ccc4c(c3)OCO4)CC2)c2ccccc12	> 112 µM (not active)
N=C(NOC(=O)c1ccccc1Cl)c1cccnc1	23.6 µM (active)
CC(=O)Nc1ccc(S(=O)(=O)N2CCC(C(=O)NCc3ccco3)CC2)cc1	> 112 µM (not active)
Cc1cccc(NC(=O)CCCNC(=O)c2ccc(Cl)cc2)n1	> 112 µM (not active)
Cc1ccccc1NC(=O)c1cc(S(=O)(=O)N2CCOCC2)cn1C	> 112 µM (not active)

System: not listed separately
Assay: Luminescence Cell-Based Dose Confirmation HTS to Identify Inhibitors of Platelet Dense Granule Release. [Related pubchem assays: 1663 (Primary HTS), 1678 (Summary of Project)]
Type: functional
Conditions: not given

Structure (SMILES)	EC50
COc1ccc(C(=O)Nc2ccccc2C(=O)Nc2cccnc2)cc1	6.59 µM (active)
COc1ccc(S(=O)(=O)N2CCN(Cc3ccc4c(c3)OCO4)CC2)c2ccccc12	> 112 µM (not active)
N=C(NOC(=O)c1ccccc1Cl)c1cccnc1	> 112 µM (not active)
CC(=O)Nc1ccc(S(=O)(=O)N2CCC(C(=O)NCc3ccco3)CC2)cc1	> 112 µM (not active)
Cc1cccc(NC(=O)CCCNC(=O)c2ccc(Cl)cc2)n1	16 µM (active)
Cc1ccccc1NC(=O)c1cc(S(=O)(=O)N2CCOCC2)cn1C	> 112 µM (not active)

System: not listed separately
Assay: Luminescence Cell-Based Dose Retest to Confirm Inhibitors of Cancer Stem Cells. [Related pubchem assays (depositor defined):AID2717, AID2721]
Type: functional
Conditions: Homo sapiens

Structure (SMILES)	AC50
COc1ccc(C(=O)/C=C2/C(=O)Nc3ccccc32)cc1	4.39 µM (active)
COC(=O)c1ccc(/C=C/c2c(-c3ccc(OC)cc3)oc3ccccc23)cc1	2.47 µM (active)
O=C(c1cnc2ccc3ccccc3c2c1)c1cc(F)ccc1O	0.562 µM (active)
CC(c1ccccc1)N1C(=O)/C(=C/c2ccncc2)SC1=S (stereo unspecified)	19 µM (active)
CC(C)c1ccc(/C=N/NC(=O)c2ccccn2)cc1	19.5 µM (active)

System: not listed separately
Assay: cells
Type: functional
Conditions: not given

Structure (SMILES)	IC50
Cc1ccnc(NC(=O)CCc2c[nH]c3ccccc23)c1	21.6 µM (active)
CCOc1ccc(-c2nc3ccccc3c(=O)o2)cc1	7.01 µM (active)
O=C(Nc1c(F)cc(F)cc1Br)c1cc(-c2ccccc2)on1	4 µM (active)
CNC(=O)COC(=O)c1ccc(-c2nc3ccccc3s2)s1	5.82 µM (active)
CC(C)c1ccc(/C=N/NC(=O)c2ccccn2)cc1	6.08 µM (active)

Molecular target: Cytochrome P450 2C19 (Homo sapiens, UniProt P33261)
Sequence (P33261 whole entry): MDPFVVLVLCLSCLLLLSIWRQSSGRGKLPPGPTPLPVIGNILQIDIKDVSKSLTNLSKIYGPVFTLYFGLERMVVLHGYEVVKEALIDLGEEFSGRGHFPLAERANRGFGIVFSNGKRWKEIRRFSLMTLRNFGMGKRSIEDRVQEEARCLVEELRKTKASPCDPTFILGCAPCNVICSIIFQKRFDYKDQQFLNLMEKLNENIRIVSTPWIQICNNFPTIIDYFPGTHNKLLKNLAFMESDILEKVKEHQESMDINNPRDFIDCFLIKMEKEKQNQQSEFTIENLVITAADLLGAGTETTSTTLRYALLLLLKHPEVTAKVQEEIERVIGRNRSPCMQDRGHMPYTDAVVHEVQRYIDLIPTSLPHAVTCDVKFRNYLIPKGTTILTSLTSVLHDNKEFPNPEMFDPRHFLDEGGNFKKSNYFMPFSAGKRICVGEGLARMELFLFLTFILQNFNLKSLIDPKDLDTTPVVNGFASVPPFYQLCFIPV
Assay: Cytochrome panel assay with activity outcomes. Panel member name: p450-cyp2c19 Compounds with AC50 equal or less than 10 uM are considered active
Type: functional
Conditions: not given

Structure (SMILES)	AC50
Cc1nc2ccccc2nc(C)c1=NO	inconclusive

Same assay, conditions: read-out: AC50

Structure (SMILES)	AC50
COC(=O)[C@@]1(Cc2ccc(F)cc2)[C@H]2c3cc(C(=O)N4CCCC4)n(Cc4cccc5ccccc45)c3C[C@H]2CN1C(=O)c1ccccc1	7.94 µM (inconclusive)
CCOC(=O)c1cc(-c2ccccc2)sc1NC(=S)Nc1cc(C)ccn1	6.31 µM (inconclusive)
O=C(Nc1ccccc1)OC[C@H](CN1CCCCC1)OC(=O)Nc1ccccc1	5.01 µM (inconclusive)
c1ccc2[nH]c(-c3cscn3)nc2c1 [THIABENDAZOLE]	7.94 µM (inconclusive)

System: not listed separately
Assay: Shn3 3'UTR reporter inhibitors, dose response, cell-based, Clone20 osteoblasts, firefly luciferase, cherry-picked (AID 624132);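 further: firefly luciferase luminescence from reporter carrying the Shn3 3'UTR in osteoblasts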
Type: functional
Conditions: not given

Structure (SMILES)	AC50
Cc1ccnc(N/C=C(/NC(=O)c2ccccc2)C(=O)N/N=C\c2ccc(F)cc2)n1	> 70 µM (inactive)

System: not listed separately
Assay: control 3'UTR Renilla luciferase suppression, dose response, counter-screen for Shn3 inhibitor project, cell-based, Clone20-Shn3RL, cherry-picked (AID 624133)
Type: functional
Conditions: not given

Structure (SMILES)	AC50
Cc1ccnc(N/C=C(/NC(=O)c2ccccc2)C(=O)N/N=C\c2ccc(F)cc2)n1	26.8 µM (active)

Molecular target: Paired box protein Pax-8 (Homo sapiens, UniProt Q06710)
Sequence (Q06710 whole entry): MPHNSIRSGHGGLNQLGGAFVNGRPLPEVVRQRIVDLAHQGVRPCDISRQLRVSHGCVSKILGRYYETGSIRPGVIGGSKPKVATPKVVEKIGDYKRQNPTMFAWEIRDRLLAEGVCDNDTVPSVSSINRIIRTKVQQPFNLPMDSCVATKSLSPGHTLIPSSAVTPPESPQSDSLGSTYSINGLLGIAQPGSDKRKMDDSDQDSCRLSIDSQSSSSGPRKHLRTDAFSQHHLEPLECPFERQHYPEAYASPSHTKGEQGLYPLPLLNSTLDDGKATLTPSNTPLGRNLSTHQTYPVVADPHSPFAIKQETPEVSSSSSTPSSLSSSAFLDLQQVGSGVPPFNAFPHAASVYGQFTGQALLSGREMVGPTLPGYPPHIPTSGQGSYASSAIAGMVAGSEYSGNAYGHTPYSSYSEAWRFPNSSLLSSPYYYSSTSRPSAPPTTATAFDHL
Assay: inhibitors of PAX8-driven TPO luciferase reporter, dose response, RMG-I cells, cherry-pick (AID 687027);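 further: luciferase reporter driven by Pax8 target thyroperoxidase promoter measured by SteadyGlo luminescence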
Type: functional, cell-based
Conditions: not given

Structure (SMILES)	AC50
C[C@@H]1CCCCO[C@H](CN(C)Cc2ccc(C(F)(F)F)cc2)[C@H](C)CN([C@@H](C)CO)C(=O)c2cc(NC(=O)Nc3ccc(F)cc3)ccc2O1	8.21 µM (active)
C[C@@H]1CN([C@@H](C)CO)C(=O)Cc2cc(NC(=O)c3ccncc3)ccc2O[C@@H]1CN(C)Cc1ccc(-c2ccccc2)cc1	22.3 µM (active)

Molecular target: Cytochrome P450 2D6 (Homo sapiens, UniProt P10635);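 further: CYP2D6 member of a cytochrome P450 panel assay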
Sequence (P10635 whole entry): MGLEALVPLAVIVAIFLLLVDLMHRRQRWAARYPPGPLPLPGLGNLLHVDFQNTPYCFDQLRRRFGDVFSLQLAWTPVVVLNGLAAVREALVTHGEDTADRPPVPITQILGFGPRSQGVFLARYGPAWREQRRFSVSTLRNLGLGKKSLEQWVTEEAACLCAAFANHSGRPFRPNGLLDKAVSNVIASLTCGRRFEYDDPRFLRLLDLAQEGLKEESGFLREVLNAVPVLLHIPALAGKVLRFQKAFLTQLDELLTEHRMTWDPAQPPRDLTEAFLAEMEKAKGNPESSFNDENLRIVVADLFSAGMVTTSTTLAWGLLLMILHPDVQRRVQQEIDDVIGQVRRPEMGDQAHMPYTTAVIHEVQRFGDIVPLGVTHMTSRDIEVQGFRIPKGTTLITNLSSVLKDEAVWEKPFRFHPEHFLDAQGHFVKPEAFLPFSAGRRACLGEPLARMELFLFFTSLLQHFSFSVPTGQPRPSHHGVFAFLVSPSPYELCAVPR
Assay: not given
Conditions: not given

Structure (SMILES)	AC50
CCC(NC(=O)C1(C)CC1(Br)Br)c1ccc(C)cc1 (stereo unspecified)	7.94 µM (inconclusive)
c1ccc2[nH]c(-c3cscn3)nc2c1 [THIABENDAZOLE]	10 µM (inconclusive)

Molecular target: T3, Cytochrome P450 1A2 (Homo sapiens, UniProt P05177);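 further: PubChem cytochrome P450 panel assay, CYP1A2 panel member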
T3 sequence (P05177 whole entry): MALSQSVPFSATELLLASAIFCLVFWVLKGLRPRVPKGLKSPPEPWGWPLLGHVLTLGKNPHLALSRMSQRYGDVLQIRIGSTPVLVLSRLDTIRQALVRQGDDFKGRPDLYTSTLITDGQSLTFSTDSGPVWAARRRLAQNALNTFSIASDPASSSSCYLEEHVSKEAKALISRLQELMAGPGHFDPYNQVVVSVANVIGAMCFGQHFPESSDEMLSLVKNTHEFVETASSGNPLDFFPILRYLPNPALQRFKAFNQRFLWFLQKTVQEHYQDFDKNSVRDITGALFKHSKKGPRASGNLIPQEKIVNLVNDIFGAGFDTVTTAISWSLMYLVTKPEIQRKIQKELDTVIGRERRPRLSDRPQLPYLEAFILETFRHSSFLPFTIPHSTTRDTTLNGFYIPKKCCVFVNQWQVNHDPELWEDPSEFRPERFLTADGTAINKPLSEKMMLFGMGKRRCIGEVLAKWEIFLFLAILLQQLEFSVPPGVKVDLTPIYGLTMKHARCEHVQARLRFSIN
Assay: not given
Conditions: not given

Structure (SMILES)	AC50
CCC(NC(=O)C1(C)CC1(Br)Br)c1ccc(C)cc1 (stereo unspecified)	20 µM (inconclusive)
COC(=O)[C@@]1(Cc2ccc(F)cc2)[C@H]2c3cc(C(=O)N4CCCC4)n(Cc4cccc5ccccc45)c3C[C@H]2CN1C(=O)c1ccccc1	15.8 µM (inconclusive)
CC(=O)N1CCC2(CCN(Cc3cc(C(F)(F)F)cc(C(F)(F)F)c3)CC2)CC1	15.8 µM (inconclusive)
O=C(N[C@@H](c1ccccc1)[C@@H]1C[C@H]1C(=O)NCc1ccccn1)OCc1ccccc1	10 µM (inconclusive)
CCOC(=O)c1cc(-c2ccccc2)sc1NC(=S)Nc1cc(C)ccn1	3.55 µM (inconclusive)
O=C(Nc1ccccc1)OC[C@H](CN1CCCCC1)OC(=O)Nc1ccccc1	12.6 µM (inconclusive)
O=c1c2ccccc2c2ccccc2c(=O)n1-c1cc2c3ccccc3ccc2c2ccccc12	6.31 µM (inconclusive)
O=C(CSCc1ccccc1)Nc1cccc(C(=O)Nc2ccccc2C(=O)O)c1	15.8 µM (inconclusive)
O=C1NCCCC1C(=O)Nc1ccccc1C(F)(F)F (stereo unspecified)	39.8 µM (inconclusive)
Cc1nc2ccccc2nc(C)c1=NO	17.8 µM (inconclusive)
CCc1ccc2c(c1)cc(CN(C(S)=Nc1cccc(C)c1)C1CC1)c1nnnn12	12.6 µM (inconclusive)
COc1cccc(OCCCOc2ccccc2C(C)C)c1	22.4 µM (inconclusive)
c1ccc(CN2CC[C@@H](CNc3ncnc4ccccc34)C2)cc1	6.31 µM (inconclusive)
O=C(CCc1ccccc1)NCc1cccnc1	31.6 µM (inconclusive)
N[C@H](C(=O)O)[C@H](OCc1ccccc1)C(=O)O	31.6 µM (inconclusive)
c1ccc2[nH]c(-c3cscn3)nc2c1 [THIABENDAZOLE]	0.126 µM (active)

Molecular target: Cytochrome P450 3A4 (Homo sapiens, UniProt P08684);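 further: CYP3A4 tested as one member of a cytochrome P450 panel screen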
Sequence (P08684 whole entry): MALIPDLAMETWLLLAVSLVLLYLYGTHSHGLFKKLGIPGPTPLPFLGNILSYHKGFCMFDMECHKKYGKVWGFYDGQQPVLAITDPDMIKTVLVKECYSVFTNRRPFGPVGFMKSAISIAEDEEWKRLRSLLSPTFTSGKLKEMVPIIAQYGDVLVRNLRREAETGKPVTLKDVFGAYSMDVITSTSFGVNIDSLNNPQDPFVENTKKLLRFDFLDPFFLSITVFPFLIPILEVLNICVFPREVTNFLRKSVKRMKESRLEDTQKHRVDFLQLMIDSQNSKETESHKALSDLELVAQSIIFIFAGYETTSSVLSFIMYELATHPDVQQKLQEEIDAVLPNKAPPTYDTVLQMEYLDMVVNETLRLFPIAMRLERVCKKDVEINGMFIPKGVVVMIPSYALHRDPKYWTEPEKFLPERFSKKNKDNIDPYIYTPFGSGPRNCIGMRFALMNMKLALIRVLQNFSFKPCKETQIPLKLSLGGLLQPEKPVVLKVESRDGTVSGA
Assay: not given
Conditions: not given

Structure (SMILES)	AC50
COc1cccc(OCCCOc2ccccc2C(C)C)c1	0.0178 µM (inconclusive)

Molecular target: Cytochrome P450 2C9 (Homo sapiens, UniProt P11712)
Sequence (P11712 whole entry): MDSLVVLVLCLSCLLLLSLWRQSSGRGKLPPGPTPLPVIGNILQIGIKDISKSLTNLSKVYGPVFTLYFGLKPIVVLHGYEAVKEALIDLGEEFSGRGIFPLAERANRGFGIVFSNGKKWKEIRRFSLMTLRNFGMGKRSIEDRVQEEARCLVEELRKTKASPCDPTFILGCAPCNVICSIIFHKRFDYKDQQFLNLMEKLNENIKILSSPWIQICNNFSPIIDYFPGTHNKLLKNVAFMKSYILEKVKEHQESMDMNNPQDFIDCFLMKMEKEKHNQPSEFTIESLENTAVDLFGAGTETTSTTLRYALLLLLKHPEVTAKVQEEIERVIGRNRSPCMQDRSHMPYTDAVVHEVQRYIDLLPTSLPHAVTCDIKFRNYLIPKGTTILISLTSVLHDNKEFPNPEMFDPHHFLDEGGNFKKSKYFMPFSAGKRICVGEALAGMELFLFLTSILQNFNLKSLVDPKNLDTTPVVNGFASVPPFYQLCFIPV
Assay: not given
Conditions: not given

Structure (SMILES)	AC50
O=C(N[C@@H](c1ccccc1)[C@@H]1C[C@H]1C(=O)NCc1ccccn1)OCc1ccccc1	20 µM (inconclusive)
CCOC(=O)c1cc(-c2ccccc2)sc1NC(=S)Nc1cc(C)ccn1	5.62 µM (inconclusive)
CCc1ccc2c(c1)cc(CN(C(S)=Nc1cccc(C)c1)C1CC1)c1nnnn12	2.82 µM (inconclusive)
COc1cccc(OCCCOc2ccccc2C(C)C)c1	25.1 µM (inconclusive)
O=C(CCc1ccccc1)NCc1cccnc1	1 µM (inconclusive)
